Where two headings read alike, the source gives them in different places.
Tested on: NL-RLuc virus
Assay: Inhibition of HIV replication (NL-RLuc reporter virus in MT-2 cells, luciferase readout)
Type: cell-based
Details: Human immunodeficiency virus 1, MT2, 120 h
Text: Inhibition of HIV replication: A recombinant NL-RLuc proviral clone was constructed in which a section of the nef gene from NL4-3 was replaced with the Renilla Luciferase gene. This virus is fully infectious and can undergo multiple cycles of replication in cell culture. In addition, the luciferous reporter provides a simple and easy method for quantitating the extent of virus growth and consequently, the antiviral activity of test compounds. The plasmid pNLRLuc contains the proviral NL-Rluc DNA cloned into pUC18 at the PvuII site. The NL-RLuc virus was prepared by transfection of 293T cells with the plasmid pNLRLuc. Transfections were performed using the LipofectAMINE PLUS kit from Invitrogen (Carlsbad, Calif.) according to the manufacturer and the virus generated was titered in MT-2 cells. For susceptibility analyses, the titrated virus was used to infect MT-2 cells in the presence of compound, and after 5 days of incubation, cells were processed and quantitated for virus growth by the amount of expressed luciferase. Assay media was RPMI 1640 supplemented with 10% heat inactivated fetal bovine serum (FBS), 100 units/ml penicillin G/100 units/ml streptomycin, 10 mM HEPES buffer pH 7.55 and 2 mM L-glutamine. The results from at least 2 experiments were used to calculate the EC50 values. Luciferase was quantitated using the Dual Luciferase kit from Promega (Madison, Wis.). Susceptibility of viruses to compounds was determined by incubation in the presence of serial dilutions of the compound. The 50% effective concentration (EC50) was calculated by using the exponential form of the median effect equation where (Fa)=1/[1+(ED50/drug conc.)^m] (Johnson V A, Byington R T. Infectivity Assay. In Techniques in HIV Research. ed. Aldovini A, Walker B D. 71-76. New York: Stockton Press.1990). Activity equal to A refers to a compound having an EC50≤100 nM, while B and C denote compounds having an EC50 between 100 nM and 1 uM (B) or >1 uM (C).

Compound | EC50 (read-out: Activity) | EC50 (read-out: EC50 μM)
Cc1nc(C)c([C@H](OC(C)(C)C)C(=O)O)c(N2CCC(C)(C)CC2)c1-c1ccc2c(c1)CCN(Cc1c(F)cccc1C(F)(F)F)C2 [Compound 30, (S)-2-(tert-butoxy)-2-(4-(4,4-dimethylpiperidin-1-yl)-5-(2-(2-fluoro-6-(trifluoromethyl)benzyl)-1,2,3,4-tetrahydroisoquinolin-6-yl)-2,6-dimethylpyridin-3-yl)acetic acid] | < 0.1 µM | –
COc1ccc(C)cc1CN1CCc2cc(-c3c(C)nc(C)c([C@H](OC(C)(C)C)C(=O)O)c3N3CCC(C)(C)CC3)ccc2C1 [Compound 119, (S)-2-(tert-butoxy)-2-(4-(4,4-dimethylpiperidin-1-yl)-5-(2-(2-methoxy-5-methylbenzyl)-1,2,3,4-tetrahydroisoquinolin-6-yl)-2,6-dimethylpyridin-3-yl)acetic acid] | < 0.1 µM | –
Cc1nc(C)c([C@H](OC(C)(C)C)C(=O)O)c(N2CCC(C)(C)CC2)c1-c1ccc2c(c1)CCN(Cc1cc(F)ccc1C(F)(F)F)C2 [Compound 66, (S)-2-(tert-butoxy)-2-(4-(4,4-dimethylpiperidin-1-yl)-5-(2-(5-fluoro-2-(trifluoromethyl)benzyl)-1,2,3,4-tetrahydroisoquinolin-6-yl)-2,6-dimethylpyridin-3-yl)acetic acid] | < 0.1 µM | 0.013 µM
COc1c(F)cc(CN2CCc3cc(-c4c(C)nc(C)c([C@H](OC(C)(C)C)C(=O)O)c4N4CCC(C)(C)CC4)ccc3C2)cc1F [Compound 95, (S)-2-(tert-butoxy)-2-(5-(2-(3,5-difluoro-4-methoxybenzyl)-1,2,3,4-tetrahydroisoquinolin-6-yl)-4-(4,4-dimethylpiperidin-1-yl)-2,6-dimethylpyridin-3-yl)acetic acid] | < 0.1 µM | –
Cc1nc(C)c([C@H](OC(C)(C)C)C(=O)O)c(N2CCC(C)(C)CC2)c1-c1ccc2c(c1)CCN(Cc1cc(F)ccc1Cl)C2 [Compound 45, (S)-2-(tert-butoxy)-2-(5-(2-(2-chloro-5-fluorobenzyl)-1,2,3,4-tetrahydroisoquinolin-6-yl)-4-(4,4-dimethylpiperidin-1-yl)-2,6-dimethylpyridin-3-yl)acetic acid] | < 0.1 µM | 0.003 µM
Cc1nc(C)c([C@H](OC(C)(C)C)C(=O)O)c(N2CCC(C)(C)CC2)c1-c1ccc2c(c1)CCN(Cc1ccccc1C(C)C)C2 [Compound 77, (S)-2-(tert-butoxy)-2-(4-(4,4-dimethylpiperidin-1-yl)-5-(2-(2-isopropylbenzyl)-1,2,3,4-tetrahydroisoquinolin-6-yl)-2,6-dimethylpyridin-3-yl)acetic acid] | < 0.1 µM | –
Cc1nc(C)c([C@H](OC(C)(C)C)C(=O)O)c(N2CCC(C)(C)CC2)c1-c1ccc2c(c1)CCN(Cc1cccc(C(C)(C)C)c1)C2 [Compound 81, (S)-2-(tert-butoxy)-2-(5-(2-(3-(tert-butyl)benzyl)-1,2,3,4-tetrahydroisoquinolin-6-yl)-4-(4,4-dimethylpiperidin-1-yl)-2,6-dimethylpyridin-3-yl)acetic acid] | < 0.1 µM | –
Cc1ccc(CN2CCc3cc(-c4c(C)nc(C)c([C@H](OC(C)(C)C)C(=O)O)c4N4CCC(C)(C)CC4)ccc3C2)cc1C [Compound 161, (S)-2-(tert-butoxy)-2-(5-(2-(3,4-dimethylbenzyl)-1,2,3,4-tetrahydroisoquinolin-6-yl)-4-(4,4-dimethylpiperidin-1-yl)-2,6-dimethylpyridin-3-yl)acetic acid] | < 0.1 µM | –
Cc1cc(CN2CCc3cc(-c4c(C)nc(C)c([C@H](OC(C)(C)C)C(=O)O)c4N4CCC(C)(C)CC4)ccc3C2)cc(F)c1F [Compound 76, (S)-2-(tert-butoxy)-2-(5-(2-(3,4-difluoro-5-methylbenzyl)-1,2,3,4-tetrahydroisoquinolin-6-yl)-4-(4,4-dimethylpiperidin-1-yl)-2,6-dimethylpyridin-3-yl)acetic acid] | < 0.1 µM | –
Cc1nc(C)c([C@H](OC(C)(C)C)C(=O)O)c(N2CCC(C)(C)CC2)c1-c1ccc2c(c1)CCN(Cc1ccc(OC(F)F)c(OC(F)F)c1)C2 [Compound 157, (S)-2-(5-(2-(3,4-bis(difluoromethoxy)benzyl)-1,2,3,4-tetrahydroisoquinolin-6-yl)-4-(4,4-dimethylpiperidin-1-yl)-2,6-dimethylpyridin-3-yl)-2-(tert-butoxy)acetic acid] | < 0.1 µM | –
COc1ccc(C(F)(F)F)cc1CN1CCc2cc(-c3c(C)nc(C)c([C@H](OC(C)(C)C)C(=O)O)c3N3CCC(C)(C)CC3)ccc2C1 [Compound 151, (S)-2-(tert-butoxy)-2-(4-(4,4-dimethylpiperidin-1-yl)-5-(2-(2-methoxy-5-(trifluoromethyl)benzyl)-1,2,3,4-tetrahydroisoquinolin-6-yl)-2,6-dimethylpyridin-3-yl)acetic acid] | < 0.1 µM | –
COc1cc(CN2CCc3cc(-c4c(C)nc(C)c([C@H](OC(C)(C)C)C(=O)O)c4N4CCC(C)(C)CC4)ccc3C2)ccc1C [Compound 140, (S)-2-(tert-butoxy)-2-(4-(4,4-dimethylpiperidin-1-yl)-5-(2-(3-methoxy-4-methylbenzyl)-1,2,3,4-tetrahydroisoquinolin-6-yl)-2,6-dimethylpyridin-3-yl)acetic acid] | < 0.1 µM | –
Cc1nc(C)c([C@H](OC(C)(C)C)C(=O)O)c(N2CCC(C)(C)CC2)c1-c1ccc2c(c1)CCN(Cc1cc(F)ccc1F)C2 [Compound 38, (S)-2-(tert-butoxy)-2-(5-(2-(2,5-difluorobenzyl)-1,2,3,4-tetrahydroisoquinolin-6-yl)-4-(4,4-dimethylpiperidin-1-yl)-2,6-dimethylpyridin-3-yl)acetic acid] | < 0.1 µM | 0.006 µM
Cc1cc(Cl)ccc1CN1CCc2cc(-c3c(C)nc(C)c([C@H](OC(C)(C)C)C(=O)O)c3N3CCC(C)(C)CC3)ccc2C1 [Compound 131, (S)-2-(tert-butoxy)-2-(5-(2-(4-chloro-2-methylbenzyl)-1,2,3,4-tetrahydroisoquinolin-6-yl)-4-(4,4-dimethylpiperidin-1-yl)-2,6-dimethylpyridin-3-yl)acetic acid] | < 0.1 µM | –
COc1cc(F)cc(CN2CCc3cc(-c4c(C)nc(C)c([C@H](OC(C)(C)C)C(=O)O)c4N4CCC(C)(C)CC4)ccc3C2)c1 [Compound 122, (S)-2-(tert-butoxy)-2-(4-(4,4-dimethylpiperidin-1-yl)-5-(2-(3-fluoro-5-methoxybenzyl)-1,2,3,4-tetrahydroisoquinolin-6-yl)-2,6-dimethylpyridin-3-yl)acetic acid] | < 0.1 µM | –
Cc1nc(C)c([C@H](OC(C)(C)C)C(=O)O)c(N2CCC(C)(C)CC2)c1-c1ccc2c(c1)CCN(Cc1ccc(Cl)cc1Cl)C2 [Compound 53, (S)-2-(tert-butoxy)-2-(5-(2-(2,4-dichlorobenzyl)-1,2,3,4-tetrahydroisoquinolin-6-yl)-4-(4,4-dimethylpiperidin-1-yl)-2,6-dimethylpyridin-3-yl)acetic acid] | < 0.1 µM | –
CCCCCCCCCOc1ccc(CN2CCc3cc(-c4c(C)nc(C)c([C@H](OC(C)(C)C)C(=O)O)c4N4CCC(C)(C)CC4)ccc3C2)cc1 [Compound 163, (S)-2-(tert-butoxy)-2-(4-(4,4-dimethylpiperidin-1-yl)-2,6-dimethyl-5-(2-(4-(nonyloxy)benzyl)-1,2,3,4-tetrahydroisoquinolin-6-yl)pyridin-3-yl)acetic acid] | < 0.1 µM | 0.076 µM
Cc1nc(C)c([C@H](OC(C)(C)C)C(=O)O)c(N2CCC(C)(C)CC2)c1-c1ccc2c(c1)CCN(Cc1cccc(Cl)c1F)C2 [Compound 130, (S)-2-(tert-butoxy)-2-(5-(2-(3-chloro-2-fluorobenzyl)-1,2,3,4-tetrahydroisoquinolin-6-yl)-4-(4,4-dimethylpiperidin-1-yl)-2,6-dimethylpyridin-3-yl)acetic acid] | < 0.1 µM | –
Cc1nc(C)c([C@H](OC(C)(C)C)C(=O)O)c(N2CCC(C)(C)CC2)c1-c1ccc2c(c1)CCN(Cc1c(O)cc(F)cc1F)C2 [Compound 144, (S)-2-(tert-butoxy)-2-(5-(2-(2,4-difluoro-6-hydroxybenzyl)-1,2,3,4-tetrahydroisoquinolin-6-yl)-4-(4,4-dimethylpiperidin-1-yl)-2,6-dimethylpyridin-3-yl)acetic acid] | < 0.1 µM | 0.008 µM
COc1cc(F)c(CN2CCc3cc(-c4c(C)nc(C)c([C@H](OC(C)(C)C)C(=O)O)c4N4CCC(C)(C)CC4)ccc3C2)c(F)c1 [Compound 106, (S)-2-(tert-butoxy)-2-(5-(2-(2,6-difluoro-4-methoxybenzyl)-1,2,3,4-tetrahydroisoquinolin-6-yl)-4-(4,4-dimethylpiperidin-1-yl)-2,6-dimethylpyridin-3-yl)acetic acid] | < 0.1 µM | –
Cc1nc(C)c([C@H](OC(C)(C)C)C(=O)O)c(N2CCC(C)(C)CC2)c1-c1ccc2c(c1)CCN(Cc1ccc(F)c(C)c1C)C2 [Compound 72, (S)-2-(tert-butoxy)-2-(4-(4,4-dimethylpiperidin-1-yl)-5-(2-(4-fluoro-2,3-dimethylbenzyl)-1,2,3,4-tetrahydroisoquinolin-6-yl)-2,6-dimethylpyridin-3-yl)acetic acid] | < 0.1 µM | –

Reference: US10189816B2, “Substituted pyridines as inhibitors of human immunodeficiency virus replication” (priority 2015, dated 2019)
